Key:
Assay in all cases: KINOMEscan competition binding
Details in all cases: OR0642 1 µM; read-out: %Control
[1] = target: T1, JAK2(JH1domain-catalytic) (Homo sapiens, UniProt O60674)
T1 construct: JAK2(JH1domain-catalytic); purchased Eurofins DiscoverX (KINOMEscan scanEDGE 97)
Method: (§1) Kinome profiling was provided by Eurofins DiscoverX Corporation. Determination of the % control activity for 97 kinases was obtained through an active site-directed competition binding assay that quantitatively measure interactions between compound and kinases. OR0642 was used at 1 μM.
(§2) Supplementary Table 3. KINOMEscan™ Profiling of OR0642. Competition binding assay to quantitatively measure interactions between OR0642 (1 µM) and 97 human kinases and disease relevant mutant variants.
(§3) Target Gene Symbol %Control Target Gene Symbol %Control […]

[2] = target: T2, JAK3(JH1domain-catalytic) (Homo sapiens, UniProt P52333)
T2 construct: JAK3(JH1domain-catalytic); purchased Eurofins DiscoverX (KINOMEscan scanEDGE 97)
Method: as §1, §2, §3

MAPKAPK2 = target: T3, MAPKAPK2 (Homo sapiens, UniProt P49137)
T3 construct: purchased Eurofins DiscoverX (KINOMEscan scanEDGE 97)
T3 sequence (P49137 whole entry): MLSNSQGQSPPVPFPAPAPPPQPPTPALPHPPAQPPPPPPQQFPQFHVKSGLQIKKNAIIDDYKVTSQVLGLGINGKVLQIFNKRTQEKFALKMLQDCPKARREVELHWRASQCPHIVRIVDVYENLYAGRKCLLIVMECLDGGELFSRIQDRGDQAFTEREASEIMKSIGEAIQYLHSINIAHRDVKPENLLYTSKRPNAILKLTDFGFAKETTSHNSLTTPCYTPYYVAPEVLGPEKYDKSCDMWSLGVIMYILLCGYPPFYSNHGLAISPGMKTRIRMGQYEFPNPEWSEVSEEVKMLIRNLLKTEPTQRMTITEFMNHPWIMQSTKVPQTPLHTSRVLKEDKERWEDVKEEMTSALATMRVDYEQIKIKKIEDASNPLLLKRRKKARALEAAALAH
Method: as §1, §2, §3

PIM2 = target: T4, PIM2 (Homo sapiens, UniProt Q9P1W9)
T4 construct: purchased Eurofins DiscoverX (KINOMEscan scanEDGE 97)
Method: as §1, §2, §3

PIM3 = target: T5, PIM3 (Homo sapiens, UniProt Q86V86)
T5 construct: purchased Eurofins DiscoverX (KINOMEscan scanEDGE 97)
Method: as §1, §2, §3

PLK1 = target: T6, PLK1 (Homo sapiens, UniProt P53350)
T6 construct: purchased Eurofins DiscoverX (KINOMEscan scanEDGE 97)
T6 sequence (P53350 whole entry): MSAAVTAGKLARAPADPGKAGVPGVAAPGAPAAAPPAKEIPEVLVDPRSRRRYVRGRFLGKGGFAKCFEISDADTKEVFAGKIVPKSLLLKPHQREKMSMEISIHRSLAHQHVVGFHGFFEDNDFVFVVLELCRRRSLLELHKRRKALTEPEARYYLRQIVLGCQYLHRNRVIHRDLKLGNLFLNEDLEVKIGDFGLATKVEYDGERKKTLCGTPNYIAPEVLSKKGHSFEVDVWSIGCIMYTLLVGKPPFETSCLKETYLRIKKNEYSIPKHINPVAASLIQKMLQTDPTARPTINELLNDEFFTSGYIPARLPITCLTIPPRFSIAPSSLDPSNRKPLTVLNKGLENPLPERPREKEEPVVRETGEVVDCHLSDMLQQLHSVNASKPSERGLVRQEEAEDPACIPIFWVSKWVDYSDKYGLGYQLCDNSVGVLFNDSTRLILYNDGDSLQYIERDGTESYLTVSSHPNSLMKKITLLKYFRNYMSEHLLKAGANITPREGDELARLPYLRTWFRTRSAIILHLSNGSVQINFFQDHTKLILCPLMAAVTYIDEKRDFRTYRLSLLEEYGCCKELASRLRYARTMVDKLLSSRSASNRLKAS
Method: as §1, §2, §3

PLK3 = target: T7, PLK3 (Homo sapiens, UniProt Q9H4B4)
T7 construct: purchased Eurofins DiscoverX (KINOMEscan scanEDGE 97)
Method: as §1, §2, §3

PLK4 = target: T8, PLK4 (Homo sapiens, UniProt O00444)
T8 construct: purchased Eurofins DiscoverX (KINOMEscan scanEDGE 97)
Method: as §1, §2, §3

PRKCE = target: T9, PRKCE (Homo sapiens, UniProt Q02156)
T9 construct: purchased Eurofins DiscoverX (KINOMEscan scanEDGE 97)
Method: as §1, §2, §3

RAF1 = target: T10, RAF1 (Homo sapiens, UniProt P04049)
T10 construct: purchased Eurofins DiscoverX (KINOMEscan scanEDGE 97)
Method: as §1, §2, §3

RET = target: T11, RET (Homo sapiens, UniProt P07949)
T11 construct: purchased Eurofins DiscoverX (KINOMEscan scanEDGE 97)
Method: as §1, §2, §3

RIOK2 = target: T12, RIOK2 (Homo sapiens, UniProt Q9BVS4)
T12 construct: purchased Eurofins DiscoverX (KINOMEscan scanEDGE 97)
Method: as §1, §2, §3

ROCK2 = target: T13, ROCK2 (Homo sapiens, UniProt O75116)
T13 construct: purchased Eurofins DiscoverX (KINOMEscan scanEDGE 97)
T13 sequence (O75116 whole entry): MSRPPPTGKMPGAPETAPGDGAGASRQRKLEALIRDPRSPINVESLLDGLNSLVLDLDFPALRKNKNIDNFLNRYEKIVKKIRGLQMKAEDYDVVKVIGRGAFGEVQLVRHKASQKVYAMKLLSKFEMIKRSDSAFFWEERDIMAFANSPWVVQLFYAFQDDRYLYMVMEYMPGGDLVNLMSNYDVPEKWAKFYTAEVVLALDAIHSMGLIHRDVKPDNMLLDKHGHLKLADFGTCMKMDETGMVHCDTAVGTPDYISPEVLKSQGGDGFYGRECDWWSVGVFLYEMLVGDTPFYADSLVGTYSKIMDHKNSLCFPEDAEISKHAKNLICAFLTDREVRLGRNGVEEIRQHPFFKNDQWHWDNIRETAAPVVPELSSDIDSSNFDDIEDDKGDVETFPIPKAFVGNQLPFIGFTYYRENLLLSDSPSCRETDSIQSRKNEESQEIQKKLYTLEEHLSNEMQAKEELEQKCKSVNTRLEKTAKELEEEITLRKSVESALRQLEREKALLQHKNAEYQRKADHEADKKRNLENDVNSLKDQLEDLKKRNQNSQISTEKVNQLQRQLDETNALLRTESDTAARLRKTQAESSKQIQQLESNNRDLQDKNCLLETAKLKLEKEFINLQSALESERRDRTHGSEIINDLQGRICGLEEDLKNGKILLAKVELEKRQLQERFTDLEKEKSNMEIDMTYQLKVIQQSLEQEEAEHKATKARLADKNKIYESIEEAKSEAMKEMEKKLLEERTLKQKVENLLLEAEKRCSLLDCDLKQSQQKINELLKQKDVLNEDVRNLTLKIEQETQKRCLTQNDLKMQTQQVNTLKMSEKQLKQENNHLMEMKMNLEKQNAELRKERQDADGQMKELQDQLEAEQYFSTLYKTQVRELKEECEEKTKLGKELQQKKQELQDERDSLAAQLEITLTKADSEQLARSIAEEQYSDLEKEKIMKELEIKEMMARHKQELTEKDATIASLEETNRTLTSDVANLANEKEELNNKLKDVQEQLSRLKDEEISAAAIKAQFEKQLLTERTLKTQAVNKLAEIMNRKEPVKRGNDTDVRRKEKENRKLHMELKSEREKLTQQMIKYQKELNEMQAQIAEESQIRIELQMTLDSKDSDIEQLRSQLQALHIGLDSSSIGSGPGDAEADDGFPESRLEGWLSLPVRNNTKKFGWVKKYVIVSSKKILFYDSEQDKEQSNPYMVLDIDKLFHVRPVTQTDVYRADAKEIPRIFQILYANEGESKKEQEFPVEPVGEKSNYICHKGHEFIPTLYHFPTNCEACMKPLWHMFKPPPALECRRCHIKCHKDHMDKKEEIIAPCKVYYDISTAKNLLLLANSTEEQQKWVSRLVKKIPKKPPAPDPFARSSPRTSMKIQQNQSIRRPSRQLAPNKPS
Method: as §1, §2, §3

[3] = target: T14, RSK2(Kin.Dom.1-N-terminal) (Homo sapiens, UniProt P51812)
T14 construct: RSK2(Kin.Dom.1-N-terminal); purchased Eurofins DiscoverX (KINOMEscan scanEDGE 97)
Method: as §1, §2, §3

SNARK = target: T15, SNARK (Homo sapiens, UniProt Q9H093)
T15 construct: purchased Eurofins DiscoverX (KINOMEscan scanEDGE 97)
T15 sequence (Q9H093 whole entry): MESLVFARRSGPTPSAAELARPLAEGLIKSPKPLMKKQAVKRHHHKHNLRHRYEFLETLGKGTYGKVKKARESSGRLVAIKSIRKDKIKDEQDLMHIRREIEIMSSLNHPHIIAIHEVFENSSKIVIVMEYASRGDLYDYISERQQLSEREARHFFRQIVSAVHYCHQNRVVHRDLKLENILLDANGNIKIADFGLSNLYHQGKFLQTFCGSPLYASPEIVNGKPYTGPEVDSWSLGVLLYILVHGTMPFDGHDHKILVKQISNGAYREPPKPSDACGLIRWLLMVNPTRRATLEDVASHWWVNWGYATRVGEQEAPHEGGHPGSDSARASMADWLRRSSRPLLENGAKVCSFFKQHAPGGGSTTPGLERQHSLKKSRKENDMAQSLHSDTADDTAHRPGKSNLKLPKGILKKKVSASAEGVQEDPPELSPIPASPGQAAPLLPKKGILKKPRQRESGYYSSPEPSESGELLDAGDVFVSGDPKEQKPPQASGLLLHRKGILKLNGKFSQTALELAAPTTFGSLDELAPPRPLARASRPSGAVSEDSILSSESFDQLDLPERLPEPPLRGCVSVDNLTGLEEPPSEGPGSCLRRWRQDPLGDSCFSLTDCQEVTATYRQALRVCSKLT
Method: as §1, §2, §3

SRC = target: T16, SRC (Homo sapiens, UniProt P12931)
T16 construct: purchased Eurofins DiscoverX (KINOMEscan scanEDGE 97)
Method: as §1, §2, §3

SRPK3 = target: T17, SRPK3 (Homo sapiens, UniProt Q9UPE1)
T17 construct: purchased Eurofins DiscoverX (KINOMEscan scanEDGE 97)
Method: as §1, §2, §3

TGFBR1 = target: T18, TGFBR1 (Homo sapiens, UniProt P36897)
T18 construct: purchased Eurofins DiscoverX (KINOMEscan scanEDGE 97)
Method: as §1, §2, §3

TIE2 = target: T19, TIE2 (Homo sapiens, UniProt Q02763)
T19 construct: purchased Eurofins DiscoverX (KINOMEscan scanEDGE 97)
T19 sequence (Q02763 23-1124): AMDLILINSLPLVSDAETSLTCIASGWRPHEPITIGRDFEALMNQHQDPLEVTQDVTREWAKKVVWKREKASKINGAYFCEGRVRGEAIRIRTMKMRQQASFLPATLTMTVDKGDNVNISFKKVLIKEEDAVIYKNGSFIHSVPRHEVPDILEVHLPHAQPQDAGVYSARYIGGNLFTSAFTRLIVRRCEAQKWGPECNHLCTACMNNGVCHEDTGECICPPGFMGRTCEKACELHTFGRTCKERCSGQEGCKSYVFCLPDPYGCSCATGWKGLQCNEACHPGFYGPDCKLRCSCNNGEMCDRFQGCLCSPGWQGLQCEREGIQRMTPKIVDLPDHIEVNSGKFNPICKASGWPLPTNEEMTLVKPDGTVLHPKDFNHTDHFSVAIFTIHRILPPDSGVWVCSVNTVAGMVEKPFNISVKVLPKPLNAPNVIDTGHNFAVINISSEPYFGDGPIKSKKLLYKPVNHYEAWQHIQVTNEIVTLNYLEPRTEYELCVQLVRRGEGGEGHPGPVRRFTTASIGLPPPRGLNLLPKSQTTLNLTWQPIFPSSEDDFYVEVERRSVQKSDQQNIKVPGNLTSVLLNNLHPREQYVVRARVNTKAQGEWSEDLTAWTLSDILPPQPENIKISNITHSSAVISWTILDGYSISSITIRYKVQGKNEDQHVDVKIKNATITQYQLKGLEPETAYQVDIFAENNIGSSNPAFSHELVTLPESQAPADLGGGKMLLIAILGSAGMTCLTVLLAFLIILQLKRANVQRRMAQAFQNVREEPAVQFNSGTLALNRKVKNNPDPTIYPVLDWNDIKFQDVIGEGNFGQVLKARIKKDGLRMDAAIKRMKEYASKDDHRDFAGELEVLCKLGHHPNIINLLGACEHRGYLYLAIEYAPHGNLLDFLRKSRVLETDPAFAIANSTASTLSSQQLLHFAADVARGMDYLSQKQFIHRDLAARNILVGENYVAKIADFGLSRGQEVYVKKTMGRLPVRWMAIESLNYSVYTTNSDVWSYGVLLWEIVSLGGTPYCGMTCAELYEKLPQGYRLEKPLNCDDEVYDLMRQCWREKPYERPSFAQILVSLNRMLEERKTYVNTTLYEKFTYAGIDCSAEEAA
Method: as §1, §2, §3

TRKA = target: T20, TRKA (Homo sapiens, UniProt P04629)
T20 construct: purchased Eurofins DiscoverX (KINOMEscan scanEDGE 97)
Method: as §1, §2, §3

TSSK1B = target: T21, TSSK1B (Homo sapiens, UniProt Q9BXA7)
T21 construct: purchased Eurofins DiscoverX (KINOMEscan scanEDGE 97)
Method: as §1, §2, §3

VEGFR2 = target: T22, VEGFR2 (Homo sapiens, UniProt P35968)
T22 construct: purchased Eurofins DiscoverX (KINOMEscan scanEDGE 97)
Method: as §1, §2, §3

YANK3 = target: T23, YANK3 (Homo sapiens, UniProt Q86UX6)
T23 construct: purchased Eurofins DiscoverX (KINOMEscan scanEDGE 97)
T23 sequence (Q86UX6 whole entry): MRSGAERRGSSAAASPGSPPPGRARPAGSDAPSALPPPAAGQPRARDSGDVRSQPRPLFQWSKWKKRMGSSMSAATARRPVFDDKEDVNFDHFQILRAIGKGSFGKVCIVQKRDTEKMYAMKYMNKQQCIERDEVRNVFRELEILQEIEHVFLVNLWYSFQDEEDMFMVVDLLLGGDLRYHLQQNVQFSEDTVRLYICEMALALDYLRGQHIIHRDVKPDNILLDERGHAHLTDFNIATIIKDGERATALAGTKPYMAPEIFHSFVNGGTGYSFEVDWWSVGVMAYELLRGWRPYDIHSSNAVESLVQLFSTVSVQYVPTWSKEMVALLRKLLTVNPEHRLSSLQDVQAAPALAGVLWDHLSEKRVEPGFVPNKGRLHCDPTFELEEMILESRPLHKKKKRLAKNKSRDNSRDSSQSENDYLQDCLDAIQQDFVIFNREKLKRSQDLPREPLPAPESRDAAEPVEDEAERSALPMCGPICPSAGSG
Method: as §1, §2, §3

ZAP70 = target: T24, ZAP70 (Homo sapiens, UniProt P43403)
T24 construct: purchased Eurofins DiscoverX (KINOMEscan scanEDGE 97)
Method: as §1, §2, §3

p38-alpha = target: T25, p38-alpha (Homo sapiens, UniProt Q16539)
T25 construct: purchased Eurofins DiscoverX (KINOMEscan scanEDGE 97)
Method: as §1, §2, §3

p38-beta = target: T26, p38-beta (Homo sapiens, UniProt Q15759)
T26 construct: purchased Eurofins DiscoverX (KINOMEscan scanEDGE 97)
Method: as §1, §2, §3

CCCN(c1nc(-c2nc(N)cc(N)n2)cs1)c1cc(-c2ccc(S(=O)(=O)N3CCN(C)CC3)cc2C(F)(F)F)ccc1C [OR0642]
remaining binding at 1 µM [1]: 100% | remaining binding at 1 µM [2]: 97% | remaining binding at 1 µM (MAPKAPK2): 100% | remaining binding at 1 µM (PIM2): 100% | remaining binding at 1 µM (PIM3): 100% | remaining binding at 1 µM (PLK1): 90% | remaining binding at 1 µM (PLK3): 100% | remaining binding at 1 µM (PLK4): 81% | remaining binding at 1 µM (PRKCE): 100% | remaining binding at 1 µM (RAF1): 88% | remaining binding at 1 µM (RET): 100% | remaining binding at 1 µM (RIOK2): 98% | remaining binding at 1 µM (ROCK2): 99% | remaining binding at 1 µM [3]: 100% | remaining binding at 1 µM (SNARK): 88% | remaining binding at 1 µM (SRC): 92% | remaining binding at 1 µM (SRPK3): 93% | remaining binding at 1 µM (TGFBR1): 98% | remaining binding at 1 µM (TIE2): 94% | remaining binding at 1 µM (TRKA): 100% | remaining binding at 1 µM (TSSK1B): 100% | remaining binding at 1 µM (VEGFR2): 100% | remaining binding at 1 µM (YANK3): 97% | remaining binding at 1 µM (ZAP70): 97% | remaining binding at 1 µM (p38-alpha): 100% | remaining binding at 1 µM (p38-beta): 91%

Reference: PMC10227015, “From a drug repositioning to a structure-based drug design approach to tackle acute lymphoblastic leukemia” (Nature Communications, 2023)
